Converted amounts (≈) assume the structure as drawn. One block for each compound: values may come before it.
Assays:
Experiment in all cases: ≥ marks a high value that may be exact or a test limit, other limits are often not marked, values filed in µg/mL are converted to µM
[1] = test system: Pseudomonas syringae pv. syringae DSM 10604
[2] = test system: Pseudomonas syringae pv. tomato DC3000
[3] = test system: Clavibacter michiganensis subsp. michiganensis DSM 46294
[4] = test system: Pseudomonas corrugata DSM 7228
[5] = test system: Xanthomonas vesicatoria DSM 50861
[6] = test system: Pectobacterium carotovorum subsp. carotovorum DSM 30168
[7] = test system: Staphylococcus aureus NCTC 10788
[8] = test system: Candida albicans NCPF 1467
[9] = test system: Escherichia coli NCTC 10418
[10] = test system: Bacillus subtilis ATCC 6051
[11] = test system: Pseudomonas aeruginosa
[12] = test system: Klebsiella pneumoniae
[13] = test system: Acinetobacter baumannii ATCC 19606
[14] = test system: Escherichia coli ATCC 25922
[15] = test system: Acinetobacter baumannii
[16] = test system: Klebsiella pneumoniae ATCC BAA-2146
[17] = test system: Candida albicans ATCC 90028
[18] = test system: Klebsiella pneumoniae ATCC 700603
[19] = test system: Klebsiella pneumoniae ATCC 13883
[20] = test system: Cryptococcus neoformans ATCC 208821
[21] = test system: Staphylococcus aureus ATCC 43300
[22] = test system: Pseudomonas aeruginosa ATCC 27853
[23] = test system: Staphylococcus aureus NCTC 8325-4
[24] = test system: Escherichia coli K-12
[25] = test system: Pseudomonas aeruginosa PAO1
[26] = test system: Micrococcus luteus ATCC 4698

Structure (SMILES): CC[C@H](C)[C@H](NC(=O)[C@H](CC(C)C)NC(=O)[C@H](CCCN=C(N)N)NC(=O)[C@H](CCCCN)NC(=O)[C@H](CC(C)C)NC(=O)[C@H](CC(C)C)NC(=O)[C@H](CCCCN)NC(=O)[C@H](CCCCN)NC(=O)[C@H](CCCN=C(N)N)NC(=O)[C@@H](N)CCCCN)C(N)=O [KRKKLLKRLI]
MIC [1]: 0.0772 µM (≈ 0.1 µg/mL)
MIC [2]: 0.772 µM (≈ 0.999 µg/mL)
MIC [3]: 7.72 µM (≈ 9.99 µg/mL)
MIC [4]: 0.386 µM (≈ 0.5 µg/mL)
MIC [5]: 7.72 µM (≈ 9.99 µg/mL)
MIC [6]: 7.72 µM (≈ 9.99 µg/mL)

Structure (SMILES): CC[C@H](C)[C@@H]1NC(=O)CNC(=O)[C@H](CCCN=C(N)N)NC(=O)[C@H](Cc2ccc(O)cc2)NC(=O)[C@@H]2CSSC[C@H](NC1=O)C(=O)N[C@@H](Cc1ccc(O)cc1)C(=O)N[C@@H](CCCN=C(N)N)C(=O)N[C@@H](CCCN=C(N)N)C(=O)N[C@H](C(=O)N[C@@H](CCCN=C(N)N)C(=O)O)CSSC[C@H](NC(=O)[C@H](Cc1c[nH]c3ccccc13)NC(=O)[C@@H](N)CCCCN)C(=O)N[C@@H](Cc1ccccc1)C(=O)N[C@@H](C)C(=O)N[C@@H](C(C)C)C(=O)N2 [KWCFAVCYRGICYRRCR]
MIC [10]: 0.0137 µM (≈ 0.0299 µg/mL)
MIC [11]: 0.229 µM (≈ 0.499 µg/mL)
MIC [12]: 3.66 µM (≈ 7.99 µg/mL)
MIC [13]: 0.0275 µM (≈ 0.0599 µg/mL)
MIC [14]: 0.0572 µM (≈ 0.125 µg/mL)
MIC [15]: 0.0572 µM (≈ 0.125 µg/mL)
MIC [16]: 0.229 µM (≈ 0.499 µg/mL)
MIC [17]: 1.83 µM (≈ 3.99 µg/mL)
MIC [18]: 0.229 µM (≈ 0.499 µg/mL)
MIC [19]: 0.0572 µM (≈ 0.125 µg/mL)
MIC [20]: 0.115 µM (≈ 0.25 µg/mL)
MIC [21]: 0.229 µM (≈ 0.499 µg/mL)
MIC [22]: 0.115 µM (≈ 0.25 µg/mL)

Structure (SMILES): CC(C)C[C@H](NC(=O)[C@H](CCCCN)NC(=O)[C@H](CCCCN)NC(=O)[C@H](CC(C)C)NC(=O)[C@H](CC(C)C)NC(=O)[C@H](CCCCN)NC(=O)[C@H](CCCCN)NC(=O)[C@@H](N)CC(C)C)C(N)=O [LKKLLKKL]
MIC [23]: ≥ 500 µM
MIC [24]: ≥ 500 µM
MIC [12]: > 500 µM
MIC [25]: > 500 µM

Structure (SMILES): CC[C@H](C)[C@@H]1NC(=O)CNC(=O)[C@H](CCCN=C(N)N)NC(=O)[C@H](Cc2ccc(O)cc2)NC(=O)[C@@H]2CSSC[C@H](NC1=O)C(=O)N[C@@H](Cc1ccc(O)cc1)C(=O)N[C@@H](CCCN=C(N)N)C(=O)N[C@@H](C)C(=O)N[C@H](C(=O)N[C@@H](CCCN=C(N)N)C(=O)O)CSSC[C@H](NC(=O)[C@H](Cc1c[nH]c3ccccc13)NC(=O)[C@@H](N)CCCCN)C(=O)N[C@@H](Cc1ccccc1)C(=O)N[C@@H](CCCN=C(N)N)C(=O)N[C@@H](C(C)C)C(=O)N2 [KWCFRVCYRGICYRACR]
MIC [10]: 0.0137 µM (≈ 0.0299 µg/mL)
MIC [11]: 1.83 µM (≈ 3.99 µg/mL)
MIC [12]: 7.33 µM (≈ 16 µg/mL)
MIC [13]: 0.115 µM (≈ 0.25 µg/mL)
MIC [14]: 0.115 µM (≈ 0.25 µg/mL)
MIC [15]: 0.115 µM (≈ 0.25 µg/mL)
MIC [16]: 0.458 µM (≈ 0.998 µg/mL)
MIC [17]: 0.916 µM (≈ 2 µg/mL)
MIC [18]: 0.916 µM (≈ 2 µg/mL)
MIC [19]: 0.115 µM (≈ 0.25 µg/mL)
MIC [20]: 0.115 µM (≈ 0.25 µg/mL)
MIC [21]: 1.83 µM (≈ 3.99 µg/mL)
MIC [22]: 1.83 µM (≈ 3.99 µg/mL)

Structure (SMILES): CC[C@H](C)[C@H](NC(=O)[C@H](CO)NC(=O)[C@H](CCCCN)NC(=O)[C@H](CO)NC(=O)[C@H](Cc1cnc[nH]1)NC(=O)[C@H](CCCN=C(N)N)NC(=O)[C@H](Cc1cnc[nH]1)NC(=O)[C@H](CO)NC(=O)[C@H](CCC(N)=O)NC(=O)[C@H](Cc1ccc(O)cc1)NC(=O)[C@H](CC(N)=O)NC(=O)[C@H](CC(N)=O)NC(=O)[C@@H]1CCCN1C(=O)[C@H](CO)NC(=O)CNC(=O)[C@H](Cc1ccccc1)NC(=O)CN)C(=O)N1CCC[C@H]1C(=O)NCC(=O)N[C@@H](CCCN=C(N)N)C(=O)O [GFGSPNNYQSHRHSKSIPGR]
MIC [26]: ≥ 75 µM

Structure (SMILES): CC[C@H](C)[C@H](NC(=O)[C@H](CC(C)C)NC(=O)[C@H](CCCCN)NC(=O)[C@H](CCCCN)NC(=O)[C@@H](NC(=O)[C@@H](NC(=O)[C@H](CCCCN)NC(=O)[C@H](CCCCN)NC(=O)[C@H](CCCCN)NC(=O)[C@H](CCCCN)NC(=O)[C@H](CCCCN)NC(=O)[C@@H](N)CCCN=C(N)N)[C@@H](C)CC)[C@@H](C)CC)C(N)=O [RKKKKKIIKKLI]
MIC [1]: 0.328 µM (≈ 0.5 µg/mL)
MIC [2]: 1.64 µM (≈ 2.5 µg/mL)
MIC [3]: 6.56 µM (≈ 9.99 µg/mL)
MIC [4]: 1.64 µM (≈ 2.5 µg/mL)
MIC [5]: 6.56 µM (≈ 9.99 µg/mL)
MIC [6]: 6.56 µM (≈ 9.99 µg/mL)

Structure (SMILES): CC[C@H](C)[C@@H]1NC(=O)CNC(=O)[C@H](CCCN=C(N)N)NC(=O)[C@H](Cc2ccc(O)cc2)NC(=O)[C@@H](NC(=O)[C@@H](NC(=O)[C@H](CCCN=C(N)N)NC(=O)[C@H](Cc2ccccc2)NC(=O)[C@H](C)NC(=O)[C@H](Cc2c[nH]c3ccccc23)NC(=O)[C@@H](N)CCCCN)C(C)C)CSSC[C@@H](C(=O)N[C@@H](Cc2ccc(O)cc2)C(=O)N[C@@H](CCCN=C(N)N)C(=O)N[C@@H](CCCN=C(N)N)C(=O)N[C@@H](C)C(=O)N[C@@H](CCCN=C(N)N)C(=O)O)NC1=O [KWAFRVCYRGICYRRAR]
MIC [10]: 0.0567 µM (≈ 0.125 µg/mL)
MIC [11]: 3.63 µM (≈ 7.99 µg/mL)
MIC [12]: > 7.26 µM
MIC [13]: 0.113 µM (≈ 0.25 µg/mL)
MIC [14]: 0.113 µM (≈ 0.25 µg/mL)
MIC [15]: 0.227 µM (≈ 0.5 µg/mL)
MIC [16]: 0.454 µM (≈ 0.999 µg/mL)
MIC [17]: 3.63 µM (≈ 7.99 µg/mL)
MIC [18]: 0.454 µM (≈ 0.999 µg/mL)
MIC [19]: 0.454 µM (≈ 0.999 µg/mL)
MIC [20]: 0.454 µM (≈ 0.999 µg/mL)
MIC [21]: 3.63 µM (≈ 7.99 µg/mL)
MIC [22]: 0.907 µM (≈ 2 µg/mL)

Structure (SMILES): CC[C@H](C)[C@H](NC(=O)CNC(=O)[C@H](CO)NC(=O)[C@H](C)NC(=O)[C@@H](NC(=O)[C@H](Cc1cnc[nH]1)NC(=O)[C@@H]1CCCN1C(=O)[C@@H](NC(=O)[C@H](CC(C)C)NC(=O)[C@H](CO)NC(=O)[C@H](CC(C)C)NC(=O)[C@@H](N)Cc1ccccc1)[C@@H](C)CC)[C@@H](C)CC)C(=O)N[C@@H](C)C(=O)N[C@@H](CO)C(=O)N[C@@H](CC(C)C)C(=O)N[C@H](C(=O)N[C@@H](CCCCN)C(=O)N[C@@H](CC(N)=O)C(=O)N[C@@H](Cc1ccccc1)C(N)=O)C(C)C [FLSLIPHIASGIASLVKNF]
MIC [7]: 5 µM (≈ 10.1 µg/mL)
MIC [8]: 20 µM (≈ 40.5 µg/mL)
MIC [9]: ≥ 200 µM

Other lines, results leading:

MIC [7]: 4.21 µM (≈ 8 µg/mL)
MIC [8]: 4.21 µM (≈ 8 µg/mL)
MIC [9]: ≥ 33.7 µM
Structure (SMILES): CC[C@H](C)[C@H](NC(=O)CNC(=O)[C@@H]1CCCN1C(=O)[C@H](CC(C)C)NC(=O)[C@H](C)NC(=O)[C@H](CC(N)=O)NC(=O)[C@H](CCCCN)NC(=O)[C@@H](NC(=O)[C@@H](NC(=O)[C@H](CO)NC(=O)[C@H](CC(C)C)NC(=O)[C@@H](NC(=O)CN)C(C)C)C(C)C)[C@@H](C)CC)C(=O)N[C@@H](CCSC)C(=O)N[C@@H](CCCN=C(N)N)C(=O)N[C@@H](Cc1ccccc1)C(=O)N[C@H](C(=O)N[C@@H](C)C(N)=O)[C@@H](C)CC [GVLSVIKNALPGIMRFIA]

MIC [7]: ≥ 216 µM
MIC [8]: ≥ 108 µM
MIC [9]: ≥ 54 µM
Structure (SMILES): CC[C@H](C)[C@H](NC(=O)[C@H](CO)NC(=O)[C@H](CC(N)=O)NC(=O)[C@@H](NC(=O)[C@H](Cc1ccccc1)NC(=O)[C@H](C)NC(=O)[C@H](CO)NC(=O)[C@H](C)NC(=O)[C@H](Cc1ccccc1)NC(=O)[C@H](CC(=O)O)NC(=O)[C@H](CCCCN)NC(=O)[C@H](C)NC(=O)CNC(=O)[C@@H](NC(=O)[C@H](CCCCN)NC(=O)[C@H](CC(C)C)NC(=O)[C@H](CCCCN)NC(=O)[C@H](CCC(=O)O)NC(=O)[C@H](CC(C)C)NC(=O)[C@H](Cc1ccccc1)NC(=O)CN)[C@@H](C)O)C(C)C)C(=O)N[C@@H](CCCCN)C(N)=O [GFLEKLKTGAKDFASAFVNSIK]

MIC [1]: 0.0772 µM (≈ 0.1 µg/mL)
MIC [2]: 0.772 µM (≈ 0.999 µg/mL)
MIC [3]: 3.86 µM (≈ 5 µg/mL)
MIC [4]: 0.0772 µM (≈ 0.1 µg/mL)
MIC [5]: 3.86 µM (≈ 5 µg/mL)
MIC [6]: 7.72 µM (≈ 9.99 µg/mL)
Structure (SMILES): CC(C)C[C@H](NC(=O)[C@H](CC(C)C)NC(=O)[C@H](CCCN=C(N)N)NC(=O)[C@H](CCCCN)NC(=O)[C@H](CC(C)C)NC(=O)[C@H](CC(C)C)NC(=O)[C@H](CCCCN)NC(=O)[C@H](CCCCN)NC(=O)[C@H](CCCN=C(N)N)NC(=O)[C@@H](N)CCCCN)C(N)=O [KRKKLLKRLL]

— DBAASP
